Active and inactive are the calls of the source. No cut-off for these calls is given here.
Key:
H1975-TM [1] = test: Antitumor activity against human H1975-TM cells xenografted in BALB/c nude mouse assessed as increase in tumor necrosis at 25 to 100 mg/kg, po administered once daily for 31 days by H&E staining based light microscopic analysis; assay type: functional, organism-based; details: dose 25-100 mg/kg, time 31.0 day
[2] = tested on: Protein cereblon/Epidermal growth factor receptor (Homo sapiens), P00533+Q96SW2 [L858R,T790M,C797S]; test: PROTAC activity at CRBN/EGFR L858R/T790M/C797S mutant in human H1975-TM cells assessed as induction of EGFR degradation by measuring remaining activity at 33 nM incubated for 24 hrs by Western blot analysis (reference value: 100%); assay type: cell-based
[3] = Tmax in male Sprague-Dawley rat at 5 mg/kg, iv measured after 24 hrs by LC-MS/MS analysis; assay type: ADME, organism-based; details: in vivo
[4] = tested on: Protein cereblon/Epidermal growth factor receptor (Homo sapiens), P00533+Q96SW2 [L858R,T790M,C797S]; test: PROTAC activity at CRBN/EGFR L858R/T790M/C797S mutant in human H1975-TM cells assessed as induction of EGFR degradation by measuring remaining activity at 300 nM incubated for 24 hrs by Western blot analysis (reference value: 100%); assay type: cell-based
H1975-TM [5] = test: Antitumor activity against human H1975-TM cells xenografted in BALB/c nude mouse assessed as decrease in tumor cell proliferation at 25 to 100 mg/kg, po administered once daily for 31 days by Ki67 staining based light microscopic analysis; assay type: functional, organism-based; details: dose 25-100 mg/kg, time 31.0 day
[6] = tested on: Protein cereblon/Epidermal growth factor receptor (Homo sapiens), P00533+Q96SW2 [L858R,T790M,C797S]; test: PROTAC activity at CRBN/EGFR L858R/T790M/C797S mutant in human H1975-TM cells assessed as induction of EGFR degradation by measuring remaining activity at 100 nM preincubated for 24 hrs followed by compound washout and measured after 3 hrs by Western blot analysis (reference value: 100%); assay type: cell-based
[7] = molecular target: Cyclin-dependent kinase 12 (Homo sapiens) (UniProt Q9NYV4); test: Induction of CDK12 degradation in human H1975-TM cells at 50 nM incubated for 24 hrs; assay type: cell-based
Chain of Cyclin-dependent kinase 12 (Homo sapiens) (Q9NYV4 whole entry, looked up): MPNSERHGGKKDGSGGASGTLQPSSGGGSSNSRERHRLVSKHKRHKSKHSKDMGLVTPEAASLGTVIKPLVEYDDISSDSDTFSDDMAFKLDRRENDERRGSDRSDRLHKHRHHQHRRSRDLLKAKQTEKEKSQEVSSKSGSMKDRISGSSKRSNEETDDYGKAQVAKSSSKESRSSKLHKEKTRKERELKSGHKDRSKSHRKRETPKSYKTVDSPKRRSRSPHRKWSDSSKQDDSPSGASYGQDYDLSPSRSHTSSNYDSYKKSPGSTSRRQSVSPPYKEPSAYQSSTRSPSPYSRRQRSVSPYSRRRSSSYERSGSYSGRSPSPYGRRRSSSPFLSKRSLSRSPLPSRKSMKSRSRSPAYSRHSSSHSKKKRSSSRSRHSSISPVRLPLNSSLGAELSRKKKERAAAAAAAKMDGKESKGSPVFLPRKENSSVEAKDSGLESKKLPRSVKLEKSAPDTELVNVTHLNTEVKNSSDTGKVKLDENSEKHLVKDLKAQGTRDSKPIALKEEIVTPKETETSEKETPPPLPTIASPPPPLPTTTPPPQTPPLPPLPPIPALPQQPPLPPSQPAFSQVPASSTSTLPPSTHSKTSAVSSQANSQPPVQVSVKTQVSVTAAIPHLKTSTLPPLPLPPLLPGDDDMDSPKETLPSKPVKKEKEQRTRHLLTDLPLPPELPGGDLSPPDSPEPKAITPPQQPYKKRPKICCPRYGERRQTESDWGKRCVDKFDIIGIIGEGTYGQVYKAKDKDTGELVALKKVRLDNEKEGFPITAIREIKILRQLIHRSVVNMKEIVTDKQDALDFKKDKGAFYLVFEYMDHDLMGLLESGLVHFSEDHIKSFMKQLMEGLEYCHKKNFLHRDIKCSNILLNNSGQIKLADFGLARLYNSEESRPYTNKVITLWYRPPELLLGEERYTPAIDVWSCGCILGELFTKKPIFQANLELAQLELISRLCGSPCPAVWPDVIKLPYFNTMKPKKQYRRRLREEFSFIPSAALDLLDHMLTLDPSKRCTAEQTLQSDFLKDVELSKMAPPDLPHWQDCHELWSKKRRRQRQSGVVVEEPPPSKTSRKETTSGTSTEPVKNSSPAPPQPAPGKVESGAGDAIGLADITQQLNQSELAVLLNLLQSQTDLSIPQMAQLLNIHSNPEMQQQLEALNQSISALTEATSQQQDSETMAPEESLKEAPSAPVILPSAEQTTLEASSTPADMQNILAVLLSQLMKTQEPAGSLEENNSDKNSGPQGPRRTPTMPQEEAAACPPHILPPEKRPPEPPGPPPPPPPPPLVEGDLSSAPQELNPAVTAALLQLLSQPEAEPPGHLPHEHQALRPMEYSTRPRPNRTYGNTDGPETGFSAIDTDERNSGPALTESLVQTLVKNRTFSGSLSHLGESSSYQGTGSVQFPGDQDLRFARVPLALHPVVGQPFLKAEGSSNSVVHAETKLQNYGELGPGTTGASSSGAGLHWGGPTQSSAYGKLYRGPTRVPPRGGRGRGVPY

NCI-H1975 = test: Antiproliferative activity against human NCI-H1975 cells harboring EGFR L858R/T790M mutant assessed as inhibition of cell proliferation incubated for 72 hrs by CCK8 assay; assay type: functional, cell-based; details: NCI-H1975, 72 h
[8] = molecular target: Probable U3 small nucleolar RNA-associated protein 11 (Homo sapiens) (UniProt Q9Y3A2); test: Induction of UTP11 degradation in human H1975-TM cells at 50 nM incubated for 24 hrs; assay type: cell-based
Chain of Probable U3 small nucleolar RNA-associated protein 11 (Homo sapiens) (Q9Y3A2 whole entry): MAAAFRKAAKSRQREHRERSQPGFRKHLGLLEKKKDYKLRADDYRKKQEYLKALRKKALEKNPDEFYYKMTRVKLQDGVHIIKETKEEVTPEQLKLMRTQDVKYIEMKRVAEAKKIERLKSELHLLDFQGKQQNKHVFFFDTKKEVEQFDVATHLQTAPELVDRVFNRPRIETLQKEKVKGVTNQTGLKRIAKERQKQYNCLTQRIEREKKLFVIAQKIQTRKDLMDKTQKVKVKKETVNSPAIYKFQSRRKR

[9] = Toxicity in BALB/c nude mouse xenografted with human H1975-TM cells assessed as kidney lesions at 25 to 100 mg/kg, po administered once daily for 31 days by Hematoxylin and eosin staining based analysis; assay type: organism-based; details: in vivo, 744 h, dose 25-100 mg/kg, time 31 day
[10] = Cmax in male Sprague-Dawley rat at 50 mg/kg, po measured after 24 hrs by LC-MS/MS analysis; assay type: ADME, organism-based; details: in vivo
[11] = Half-life in male Sprague-Dawley rat at 5 mg/kg, iv measured after 24 hrs by LC-MS/MS analysis; assay type: ADME, organism-based; details: in vivo
[12] = molecular target: Cyclin-dependent kinase 16 (Homo sapiens) (UniProt Q00536); test: Induction of CDK16 degradation in human H1975-TM cells at 50 nM incubated for 24 hrs; assay type: cell-based
Chain of Cyclin-dependent kinase 16 (Homo sapiens) (Q00536 whole entry): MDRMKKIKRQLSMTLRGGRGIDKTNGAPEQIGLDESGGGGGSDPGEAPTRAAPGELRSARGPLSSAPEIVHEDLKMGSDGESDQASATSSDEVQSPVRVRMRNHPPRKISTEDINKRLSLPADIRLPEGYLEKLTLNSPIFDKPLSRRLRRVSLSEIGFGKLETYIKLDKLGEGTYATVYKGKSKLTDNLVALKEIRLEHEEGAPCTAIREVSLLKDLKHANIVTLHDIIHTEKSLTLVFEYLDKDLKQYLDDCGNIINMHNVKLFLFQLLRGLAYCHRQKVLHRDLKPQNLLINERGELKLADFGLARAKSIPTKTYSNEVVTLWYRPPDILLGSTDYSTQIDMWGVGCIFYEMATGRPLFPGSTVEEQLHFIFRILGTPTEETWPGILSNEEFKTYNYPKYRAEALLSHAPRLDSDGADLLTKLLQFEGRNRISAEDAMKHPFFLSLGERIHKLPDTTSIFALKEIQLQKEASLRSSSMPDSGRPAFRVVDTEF

[13] = Tmax in male Sprague-Dawley rat at 50 mg/kg, po measured after 24 hrs by LC-MS/MS analysis; assay type: ADME, organism-based; details: in vivo
[14] = molecular target: Epidermal growth factor receptor (Homo sapiens) (UniProt P00533); test: Inhibition of EGFR signaling in human H1975-TM cells harboring EGFR L858R/T790M/C797S mutant assessed as reduction in ERK activation by Western blot analysis; assay type: cell-based; details: dose 1.2-300 nM
Chain of Epidermal growth factor receptor (Homo sapiens) (P00533 whole entry): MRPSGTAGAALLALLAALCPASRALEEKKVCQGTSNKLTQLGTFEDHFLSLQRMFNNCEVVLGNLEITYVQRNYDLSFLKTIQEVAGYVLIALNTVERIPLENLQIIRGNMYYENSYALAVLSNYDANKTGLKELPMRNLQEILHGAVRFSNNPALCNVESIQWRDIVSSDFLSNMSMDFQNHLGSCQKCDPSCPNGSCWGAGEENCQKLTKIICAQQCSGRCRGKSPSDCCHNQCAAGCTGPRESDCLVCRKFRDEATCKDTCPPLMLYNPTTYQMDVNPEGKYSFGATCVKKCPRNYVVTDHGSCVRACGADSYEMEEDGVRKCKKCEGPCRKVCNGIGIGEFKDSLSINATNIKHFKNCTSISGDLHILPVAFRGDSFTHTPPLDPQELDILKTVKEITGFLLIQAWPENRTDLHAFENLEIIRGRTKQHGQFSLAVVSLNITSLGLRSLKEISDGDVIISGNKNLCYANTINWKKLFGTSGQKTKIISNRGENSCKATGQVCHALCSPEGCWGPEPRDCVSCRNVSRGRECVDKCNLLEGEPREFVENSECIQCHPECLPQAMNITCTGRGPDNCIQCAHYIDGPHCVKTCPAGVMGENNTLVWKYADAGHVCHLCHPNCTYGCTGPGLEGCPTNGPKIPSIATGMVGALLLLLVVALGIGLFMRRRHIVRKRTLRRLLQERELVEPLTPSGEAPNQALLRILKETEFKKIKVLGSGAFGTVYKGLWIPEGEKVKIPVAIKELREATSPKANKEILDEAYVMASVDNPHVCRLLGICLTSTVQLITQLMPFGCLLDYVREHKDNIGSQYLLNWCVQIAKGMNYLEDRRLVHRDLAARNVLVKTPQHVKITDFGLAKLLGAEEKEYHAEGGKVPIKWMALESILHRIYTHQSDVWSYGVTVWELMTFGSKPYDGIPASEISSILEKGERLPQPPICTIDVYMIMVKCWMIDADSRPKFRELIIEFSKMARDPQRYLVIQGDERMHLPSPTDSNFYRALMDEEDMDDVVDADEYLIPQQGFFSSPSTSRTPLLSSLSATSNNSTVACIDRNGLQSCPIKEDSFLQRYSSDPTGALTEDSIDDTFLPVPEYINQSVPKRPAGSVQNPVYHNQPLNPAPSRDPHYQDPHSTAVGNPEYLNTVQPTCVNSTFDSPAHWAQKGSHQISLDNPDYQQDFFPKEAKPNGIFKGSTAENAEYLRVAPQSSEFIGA

[15] = molecular target: Sodium-coupled neutral amino acid symporter 2 (Homo sapiens) (UniProt Q96QD8); test: Induction of SLC38A2 degradation in human H1975-TM cells at 50 nM incubated for 24 hrs; assay type: cell-based
Chain of Sodium-coupled neutral amino acid symporter 2 (Homo sapiens) (Q96QD8 whole entry): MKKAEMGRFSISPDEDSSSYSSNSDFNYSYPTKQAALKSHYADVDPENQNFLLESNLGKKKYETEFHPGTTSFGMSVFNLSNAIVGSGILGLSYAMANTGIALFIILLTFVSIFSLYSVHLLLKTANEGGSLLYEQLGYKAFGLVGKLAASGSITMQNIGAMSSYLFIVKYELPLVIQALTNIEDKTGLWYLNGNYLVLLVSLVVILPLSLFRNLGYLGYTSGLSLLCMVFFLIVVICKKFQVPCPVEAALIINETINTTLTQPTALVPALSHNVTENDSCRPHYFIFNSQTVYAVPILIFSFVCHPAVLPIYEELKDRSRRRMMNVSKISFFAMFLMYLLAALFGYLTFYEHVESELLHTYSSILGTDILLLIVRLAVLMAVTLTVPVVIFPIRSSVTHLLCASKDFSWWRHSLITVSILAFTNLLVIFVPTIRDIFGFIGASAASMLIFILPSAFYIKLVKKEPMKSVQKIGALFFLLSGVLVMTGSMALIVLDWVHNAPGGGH

[16] = molecular target: Hepatocyte growth factor receptor (Homo sapiens) (UniProt P08581); test: Induction of MET degradation in human H1975-TM cells at 50 nM incubated for 24 hrs; assay type: cell-based
[17] = AUC (0 to infinity) in male Sprague-Dawley rat at 50 mg/kg, po measured after 24 hrs by LC-MS/MS analysis; assay type: ADME, organism-based; details: in vivo

Compound: CCS(=O)(=O)n1cc(-c2nc(Nc3ccc(N4CCN(CCCCCCC(=O)Nc5cccc6c5CN(C5CCC(=O)NC5=O)C6=O)CC4)cc3)ncc2C(F)(F)F)c2ccccc21 (stereo not drawn)
- Activity (H1975-TM [1]): Active
- Activity [2]: 6.5%
- Tmax [3]: 4.8 min
- Activity [4]: 0.1%
- Activity (H1975-TM [5]): Active
- Activity [6]: 8.5%
- Activity [7]: Active
- IC50 (NCI-H1975): 46.2 nM
- Activity [8]: Active
- Activity [9]: Non-Toxic
- Cmax [10]: 57.8 ng/mL
- half-life [11]: 2280 min
- Activity [12]: Active
- Tmax [13]: 5.7 h
- inhibition [14]: Dose-Dependent Effect
- Activity [15]: Active
- Activity [16]: Active
- AUC(0-inf) [17]: 750 ng·h/mL

Source: ChEMBL document CHEMBL5543167, “Design, Synthesis, and Biological Evaluation of Novel EGFR PROTACs Targeting C797S Mutation” (J Med Chem, 2024)
